The target of data set [1] is T1, TYR from Agaricus bisporus (AbTYR) (Agaricus bisporus, UniProt C7FF04). Set-up: purchased Sigma Chemical Co. (St. Louis, MO, USA). Conditions: previous paper; read-out: IC50, inhibition of AbTYR; cited from earlier work.
In data set [2] the test system is tyrosinase activity in α‐MSH‐stimulated B16F10 cells. In words: Tyrosinase zymography (L-DOPA staining) in α-MSH-stimulated B16F10 cells. The following applies: Mus musculus, B16-F10, α-MSH (100 nM)-stimulated B16F10 cells, 48 h, read-out: inhibition of tyrosinase activity / melanogenesis. The format is cell-based, Murine.
Protocol: ImageJ software was used to determine the intensity of bands.
A day after seeding the B16F10 cells (6×10^4 cells/mL) the culture medium was substituted by fresh one supplemented with 100 nM α‐MSH.
After incubation for 48 h, cells were washed and lysed using phosphate buffer (25 mM, pH 6.8) containing Triton X‐100 (1 %) and phenylmethyl‐sulfonyl fluoride (0.1 mM). Cellular lysates were centrifugated at 13000 rpm for 20 min at 4 °C. The protein content was determined by Bradford method and BSA was used as standard.
SDS‐polyacrylamide gel electrophoresis was used to resolve the protein extracts previously mixed with 10 mM Tris‐HCl buffer, pH 7.0, containing 1 % SDS, without mercaptoethanol.
After running, gel was rinsed in phosphate buffer (0.1 M, pH 7.0) and equilibrated for 30 min twice. […] Tyrosinase activity was visualized in the gel as dark melanin‐containing bands
The conditions of data set [3]: positive control; read-out: EC50 [μM], antioxidant activity (ABTS); cited from earlier work.
Data set [4] has as its target T1, TYR from Agaricus bisporus (AbTYR). Nature of the data set: Inhibition of diphenolase activity of AbTYR (L-DOPA as substrate).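 As to all read-outs here: absorbance measured spectrophotometrically with L-DOPA as substrate, inhibition expressed as percent relative to control sample, IC50 interpolated from dose-response curves.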 The following applies: for IC50: IC50 [μM]±SD, inhibition of diphenolase activity of AbTYR, L-DOPA substrate, three replicates.
Protocol: (§1) absorbance was measured after 60 or 1 min of incubation time in the reaction mixture containing
(§2) L-tyrosine or L-DOPA, respectively. The inhibitory activity was expressed as inhibition percentage
(§3) calculated by interpolation of the dose-response curves. Kojic acid [5-hydroxy-2-(hydroxymethyl)-
(§4) 4H-pyran-4-one], a fungal secondary metabolite used as skin whitening agent, was employed as a
(§5) positive standard (10–50 μM). A spectrophotometer (Agilent Cary 60 UV-Vis Spectrophotometer)
(§6) The inhibition kinetics on the tyrosinase were studied using Lineweaver-Burk double reciprocal
(§7) plots. The reaction mixture consisted of four different concentrations of the substrate L-DOPA
(§8) (0.6–5 mM), and mushroom tyrosinase in phosphate buffer (0.05 M, pH 6.8). Three different
(§9) concentrations were used for the analysis. Preincubation and measurement time were the same
(§10) as discussed in mushroom tyrosinase inhibition assay. The Michaelis-Menten constant (Km) and
(§11) maximal velocity (Vmax) of tyrosinase were determined by Lineweaver-Burk plots.
Data set [5] shares this target. In words: Kinetic analysis of AbTYR inhibition (Lineweaver-Burk plots, L-DOPA). Conditions: L-DOPA 0.6–5 mM, three inhibitor concentrations, phosphate buffer pH 6.8.
Protocol: Kinetics studies were performed in presence of three different concentrations of selected inhibitors, L‐DOPA (0.6–5 mM) and AbTYR in phosphate buffer (0.05 M, pH 6.8).
as §1, §2, §3, §4, §5, §6, §7, §8, §9, §10, §11
In the next data set the test system is B16F10 cells. In words: Cell viability assay (MTT). The format is cell-based, Murine. The following applies: 48 h; for cytotoxic effect (MTT): until a concentration of 10 μM. Here is the method: Murine melanoma B16F10 cells (CRL‐6475) were cultured as previous reported.[17]
3‐(4,5‐Dimethylthiazol‐2‐yl)‐2,5‐diphenyltetrazolium bromide (MTT) was used to measure the cells viability. Cells were seeded in 96‐well plates for 24 hours with a density of 5x10^3 for well. Cells were then treated for 48 h with compounds (ranging from 4 μM to 100 μM). After incubation at 37 °C and 5 % of CO2, 100 μL of MTT reagent were added to the cells and incubated 3 h at 37 °C. After adding DMSO the absorbance was determined at 560 nm. The amount of living cells in treated samples relative to untreated controls (100 %) provided the cell viability. The mean value and standard deviation (SD) were calculated from triplicate experiments.
different concentrations of compounds (4-100 μM) and their viability was evaluated by MTT assay. Data
represent mean ± SD of triplicate experiments.

Data set [6] can be described thus: ABTS radical scavenging antioxidant assay. Conditions: mean ± SD of three independent experiments. The method, then:
ABTS [2,20‐azinobis‐(3‐ethylbenzothiazoline‐6‐sulfonic acid)] assay was used to determine the total free radical‐scavenging capacity of compounds. 6‐hydroxy‐2,5,7,8‐tetramethylchromane‐2‐carboxylic acid (Trolox) was used as the reference antioxidant.[15]
The ABTS⋅^+ method is based on the capacity of an antioxidant to scavenge the free ABTS⋅^+. To produce this radical an aqueous mixture of 7 mM ABTS with 2.45 mM potassium persulfate was required.
The ABTS solution was kept in the dark, at room temperature, for 24 h before use. The ABTS⋅^+ mixture was diluted, and each compound (10 μL) was added to solution. After 1 min of incubation the absorbance was recorded at 734 nm. Afterwards the decrease in A734 was calculated and referred to the Trolox standard curve. Antioxidant activity was expressed as concentration of the compound to give a 50 % reduction in the original absorbance (EC50).

The target in data set [7] is T1, TYR from Agaricus bisporus (AbTYR). In words: Inhibition of monophenolase activity of AbTYR (L-Tyr as substrate). The format is biochemical. Set-up: purchased Sigma Chemical Co. (St. Louis, MO, USA). Conditions: 40 μM (Figure S69). The method, then: Mushroom tyrosinase inhibition assay
6.8). […] Subsequently, 0.05 mL of
L-tyrosine or L-DOPA, respectively.
respect to control sample.
positive standard (10–50 μM).
was used for absorbance measurements.
Kinetic analysis of the tyrosinase inhibition

One may read the IC50 as the concentration at which inhibition is half-maximal. One may read the EC50 as the concentration giving half of the maximal effect. As a reminder, the melting point is the temperature of the solid-liquid transition.

Read-outs that look alike come from different tables or passages of the source.

T1 sequence (C7FF04 1-392 limits assumed): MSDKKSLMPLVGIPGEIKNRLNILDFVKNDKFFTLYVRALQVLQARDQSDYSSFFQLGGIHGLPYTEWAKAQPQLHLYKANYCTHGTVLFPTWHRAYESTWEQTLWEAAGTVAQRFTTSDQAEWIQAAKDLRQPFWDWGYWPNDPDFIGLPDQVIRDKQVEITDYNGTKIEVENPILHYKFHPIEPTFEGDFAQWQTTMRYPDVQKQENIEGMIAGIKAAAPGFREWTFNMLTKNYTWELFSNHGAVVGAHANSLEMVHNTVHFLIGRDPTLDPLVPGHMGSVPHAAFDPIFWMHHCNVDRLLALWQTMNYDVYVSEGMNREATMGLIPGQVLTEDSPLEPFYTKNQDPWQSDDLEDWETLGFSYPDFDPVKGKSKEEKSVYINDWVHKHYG

As for `O=C(CN1CCC(Cc2ccccc2)CC1)N1CCN(c2ccc(O)cc2)CC1` [A, 2‐(4‐benzyl‐1‐piperidinyl)‐1‐[4‐(4‐hydroxyphenyl)piperazin‐1‐yl]ethenone], the IC50 in [1] was 3.8 µM.

For `O=c1cc(CO)occ1O` [KA, kojic acid, reference compound], in [2], the inhibition at 25 µM is 17%.

For the compound `Cc1c(C)c2c(c(C)c1O)CCC(C)(C(=O)O)O2` (stereo not drawn) [Trolox, 6‐hydroxy‐2,5,7,8‐tetramethylchromane‐2‐carboxylic acid], the EC50 in data set [3] is 13 ± 1.1 µM.

On to `Oc1ccc(N2CCNCC2)cc1` [compound 1, 4‐(1‐piperazinyl)phenol], for which, in data set [4], the IC50 was 28.9 ± 4.9 µM. The “mechanism of inhibition of AbTYR” value in data set [5] is listed as “competitive inhibitor”.

In the case of `O=C(c1ccc(Cl)cc1Cl)N1CCN(c2ccc(O)cc2)CC1` [compound 10, (4‐(4‐Hydroxyphenyl)piperazin‐1‐yl)(2,4‐dichlorophenyl)methanone], the melting point was in the range of 177 to 178 °C. Also, in the data set on B16F10 cells (until 25 μM), the “cell viability (MTT)” value is reported as “good cell viability”. Moreover, the “cytotoxic effect (MTT)” value in the data set on B16F10 cells was “no cytotoxic effect”. Further, in [2] (1 μM), the inhibition at 1 µM worked out at 44%. Moreover, the inhibition at 10 µM in [2] (10 μM) turned out to be 73%. The inhibition at 25 µM in [2] was 88%. Also, the EC50 in data set [6] turned out to be 9 ± 0.3 µM. In addition, the “inhibitory effect on monophenolase activity of AbTYR” value in [7] was “active inhibitors”. Moreover, the half-maximal inhibitory concentration (IC50) in data set [4] was 1.5 ± 0.1 µM. In addition, the “mechanism of inhibition of AbTYR” value in [5] was “competitive inhibitors”.

Take `COc1ccccc1C(=O)N1CCN(c2ccc(O)cc2)CC1` [compound 21, [4‐(4‐Hydroxyphenyl)piperazin‐1‐yl](2‐methoxyphenyl)methanone]: in the data set with B16F10 cells, the “cytotoxic effect (MTT)” value is “no cytotoxic effect”. The same compound yielded an EC50 in data set [6] of 9.2 ± 0.2 µM. Also, in [7], the “inhibitory effect on monophenolase activity of AbTYR” value was “active inhibitors”. Besides, in [4], the “fold more potent than reference compound KA” value was “about 3.5 fold” and the half-inhibitory concentration (IC50) was 3.5 ± 0.2 µM. Also, in data set [5], the “mechanism of inhibition of AbTYR” value is “competitive inhibitors”.
